# Measurements taken from patent US20140080810A1 (Exelixis, Inc., priority 2010, published 2014).
# Like-named read-outs stand apart in the source and are kept apart here.
# Columns and labels:
# PI3Kα = PI3Kα (Homo sapiens, UniProt P42336); assay: PI3K Biochemical Assay (ATP consumed, luciferase-luciferin chemiluminescence); conditions: for IC50: PIP2 used as substrate, read-out: PI3K biochemical IC50 values PI3Kα; for specificity among PI3Kα, PI3Kβ, PI3Kδ, PI3Kγ and mTOR: summary of Table 3
# Description: PI3Kα activity is measured as the percent of ATP consumed following the kinase reaction using luciferase-luciferin-coupled chemiluminescence. Reactions were conducted in 384-well white, medium binding microtiter plates (Greiner). Kinase reactions were initiated by combining test compounds, ATP, substrate (PIP2), and kinase in a 20 μL volume in a buffer solution. The standard PI3Kalpha assay buffer is composed 50 mM Tris, pH 7.5, 1 mM EGTA, 10 mM MgCl2, 1 mM DTT and 0.03% CHAPS. The standard assay concentrations for enzyme, ATP, and substrate are 1.5 nM, 1 μM, and 10 μM, respectively. The reaction mixture was incubated at ambient temperature for approximately 2 h. Following the kinase reaction, a 10 μL aliquot of luciferase-luciferin mix (Promega Kinase-Glo) was added and the chemiluminescence signal measured using a Victor2 plate reader (Perkin Elmer). Total ATP consumption was limited to 40-60% and IC50 values of control compounds correlate well with literature references. Substituting PI3Kα with PI3Kβ, PI3Kγ, or PI3Kδ, the inhibitory activity of the compounds for the other isoforms of I3K were measured.
# [1] = test system: pAKT (T308) in MCF-7 cells (PI3Kα E545K); assay: pAKT (T308) ELISA Assay; assay type: cell-based; conditions: Homo sapiens, MCF7
# Description: MCF-7 cells (ATCC) cells were seeded at 24000 cells per well in 96-well plates (Corning, 3904) in DMEM (Cellgro) containing 10% FBS (Cellgro), 1% NEAA (Cellgro) and 1% penicillin-streptomycin (Cellgro). Cells were incubated at 37° C., 5% CO2 for 48 h, and the growth medium was replaced with serum-free DMEM or in medium containing 0.4% BSA. Serial dilutions of the test Compound in 0.3% DMSO (vehicle) were added to the cells and incubated for 3 h. At the end of the incubation period, cells were stimulated for 10 minutes by the addition of L-IGF (Sigma, I-1271) at a final concentration of 100 ng/ml. Afterwards, media was discarded from cell plates and 110 μl/well of cold lysis buffer (see table below) were added. Cell plates were incubated on ice and then put on shaker in 4° C. cold room for 1 h. Two capture plates (Thermo Scientific, Reacti-bind plate, 15042) were prepared for each cell plate by pre-coating with capture Akt antibody from the two sandwich ELISA antibody pairs used (Cell Signaling Technology 7142 and 7144). The Akt capture antibodies were diluted 1:100 in PBS and 100 μl of diluted capture antibody was added per well. Capture plates were incubated at 4 C overnight. Prior to use, capture plates were washed 3 times in TBS containing 0.1% Tween20 (Bio-Rad, 170-6351) (TBST) and blocked in blocking buffer (Thermo Scientific, Starting Block T20, 37543) for 1-2 h at room temperature. After 1 h of cell lysis, 85 μl of cell lysate/well was transferred to the capture plate for detection of pAkt(T308). 15 μl of cell lysate was transferred from same well to the second capture plate for detection of total Akt1. After incubation overnight at 4° C., plates were washed 3 times with 200 μL TBST. Primary antibodies, diluted 1:100 in blocking buffer, were added to the corresponding capture plates for pAkt(T308) (Cell Signaling Technology, 7144) and total Akt1 (Cell Signaling Technology, 7142) detection and incubated at room temperature for 1 h. Plates were washed 3 times with 200 μL of TBST. Goat anti-mouse secondary antibody (Cell Signaling Technology, 7076) conjugated to HRP was diluted 1:1000 in blocking buffer and 100 μl were added to each well and incubated for 30 minutes at room temperature. Plates were then washed 3 times with 200 μL of TBST. 100 μL of SuperSignal ELISA Femto stable peroxidase solution (Thermo Scientific, 37075) was added to each well. After 1 minute incubation, chemiluminescence was read on a Wallac Victor2 1420 multilabel counter. IC50 values were determined based on the ratio of pAkt(T308) to total Akt1 signal for Compound treated wells, normalized to the DMSO-treated control wells.
# In another embodiment, the pAKT ELISA Assay was performed by seeding cells onto 96-well plates (Corning, 3904) in their respective growth media at the densities listed in Table 5. Cells were incubated at 37° C., 5% CO2 for 48 h (except MDA-MB-453 cells which were cultured in the absence of CO2). Compounds were serially diluted in DMSO and subsequently diluted in serum-free DMEM. Test compounds were added to cells in serum-free DMEM at a final concentration of 0.3% DMSO and incubated for 3 h. Cells were lysed with 130 μL of ice-cold RIPA lysis buffer (50 mM Tris-HCl, pH 7.5; 0.5% sodium deoxycholic acid; 1% Triton X-100; 0.1% SDS; 150 mM NaCl) with protease and phosphatase inhibitors (1 mM EDTA, 1 mM NaF, 20 mM β-glycerophosphate, 1 mM Na-orthovanadate, Complete-Mini EDTA-free, Roche, 11836170001, and Phosphatase Inhibitor Cocktail I, Sigma, P2850), directly in 96-well plates. Cells were lysed on ice for 60-120 min at 4° C. The supernatants were added directly to capture ELISA plates previously pre-coated with rabbit anti-AKT capture antibody. ELISA assays for pAKT(T308) and total AKT were performed with the pAKT(T308) ELISA kit (Cell Signaling Technology, 7144) and AKT1 ELISA kit (Cell Signaling Technology, 7142). For the pAKT(T308) ELISA, 85 μL of cell lysate was added to each well. […]
# [2] = IGF1 stimulation, read-out: pAKT (T308) IC50 MCF-7 PI3Kα E545K IGF1
# [3] = Table 7, stimulation line of the head prints PI3Kα, read-out: Cellular pAKT (T308) IC50 PI3KαE545K MCF-7
# Sequence of PI3Kα (P42336 whole entry): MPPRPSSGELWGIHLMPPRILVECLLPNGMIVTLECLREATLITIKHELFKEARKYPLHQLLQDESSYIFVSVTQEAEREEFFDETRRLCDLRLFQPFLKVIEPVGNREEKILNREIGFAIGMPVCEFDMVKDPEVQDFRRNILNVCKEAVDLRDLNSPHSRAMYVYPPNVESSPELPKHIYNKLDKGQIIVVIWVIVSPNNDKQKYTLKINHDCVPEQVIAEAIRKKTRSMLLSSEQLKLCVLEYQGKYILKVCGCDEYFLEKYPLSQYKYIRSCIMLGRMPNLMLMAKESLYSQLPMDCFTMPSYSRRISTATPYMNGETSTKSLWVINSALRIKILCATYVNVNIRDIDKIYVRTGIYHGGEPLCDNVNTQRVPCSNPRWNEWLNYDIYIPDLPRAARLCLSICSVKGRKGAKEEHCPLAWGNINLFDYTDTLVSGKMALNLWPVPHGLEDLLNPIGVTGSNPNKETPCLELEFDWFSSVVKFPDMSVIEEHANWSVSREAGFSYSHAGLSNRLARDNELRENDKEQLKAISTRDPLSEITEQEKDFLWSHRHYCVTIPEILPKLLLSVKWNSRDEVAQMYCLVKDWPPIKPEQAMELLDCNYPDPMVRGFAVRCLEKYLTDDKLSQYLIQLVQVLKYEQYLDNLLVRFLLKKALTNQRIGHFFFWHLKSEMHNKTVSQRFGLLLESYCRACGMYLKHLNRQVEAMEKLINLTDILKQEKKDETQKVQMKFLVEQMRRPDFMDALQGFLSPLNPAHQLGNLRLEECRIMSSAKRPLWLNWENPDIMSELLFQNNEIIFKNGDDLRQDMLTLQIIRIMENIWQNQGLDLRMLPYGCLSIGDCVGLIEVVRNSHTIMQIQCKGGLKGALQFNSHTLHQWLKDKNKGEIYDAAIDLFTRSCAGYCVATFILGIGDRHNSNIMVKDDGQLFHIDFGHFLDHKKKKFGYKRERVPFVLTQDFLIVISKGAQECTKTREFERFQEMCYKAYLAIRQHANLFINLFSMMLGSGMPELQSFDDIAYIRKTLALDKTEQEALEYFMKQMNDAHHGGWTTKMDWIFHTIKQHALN
# Sequence of PI3Kα (P27986 whole entry partner): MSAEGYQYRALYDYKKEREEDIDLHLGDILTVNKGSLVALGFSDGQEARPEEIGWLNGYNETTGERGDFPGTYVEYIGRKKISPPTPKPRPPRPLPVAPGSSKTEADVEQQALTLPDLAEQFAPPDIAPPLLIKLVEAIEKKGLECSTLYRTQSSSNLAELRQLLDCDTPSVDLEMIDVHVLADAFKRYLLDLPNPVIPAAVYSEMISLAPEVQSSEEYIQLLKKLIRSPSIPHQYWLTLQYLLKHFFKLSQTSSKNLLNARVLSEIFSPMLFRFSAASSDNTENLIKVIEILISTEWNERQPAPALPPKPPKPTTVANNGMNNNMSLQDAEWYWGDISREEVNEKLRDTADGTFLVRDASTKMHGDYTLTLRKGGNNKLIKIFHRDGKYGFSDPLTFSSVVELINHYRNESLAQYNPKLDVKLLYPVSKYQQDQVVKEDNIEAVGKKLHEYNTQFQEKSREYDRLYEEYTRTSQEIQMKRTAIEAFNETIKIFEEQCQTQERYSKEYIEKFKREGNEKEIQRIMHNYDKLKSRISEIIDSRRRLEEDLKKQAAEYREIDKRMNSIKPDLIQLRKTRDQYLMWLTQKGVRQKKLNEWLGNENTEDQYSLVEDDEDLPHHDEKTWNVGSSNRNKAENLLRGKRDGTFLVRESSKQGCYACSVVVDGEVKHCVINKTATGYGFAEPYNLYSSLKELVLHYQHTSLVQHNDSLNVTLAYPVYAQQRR
IC50 (PI3Kα) [nM],"specificity among PI3Kα, PI3Kβ, PI3Kδ, PI3Kγ and mTOR (PI3Kα)","IC50 [1, 2] [nM]","IC50 [1, 3] [nM]",SMILES
3,specific for PI3Kα isoforms,2240,2240,CCNc1nc2ccc(-c3ccc4c(c3)CN(c3ccnc5cc(F)ccc35)CCO4)cc2[nH]1 [Compound 698]
6,specific for PI3Kα isoforms,2400,2400,CCNc1nc2ccc(-c3ccc4c(c3)CN(c3ncnc(NCC)c3C)CCO4)cc2[nH]1 [Compound 699]
3,specific for PI3Kα isoforms,1650,1650,COc1ccc2c(N3CCOc4ccc(-c5cnc6nc(C)[nH]c6c5)cc4C3)nc(CN(C)C)nc2c1 [Compound 696]
2,–,120,120,Cc1nc2ncc(-c3ccc4c(c3)CN(c3nc(CN(C)C)nc5c3CC(C)(C)CC5)CCO4)cc2[nH]1 [Compound 693]
4,–,135,135,Cc1nc2cc(-c3ccc4c(c3)CN(c3nc(CN(C)C)nc(C)c3C(C)C)CCO4)cnc2[nH]1 [Compound 694]
